{"source": "patent US20230263783A1", "about": "“CANCER TREATMENT BY COMBINED INHIBITION OF POLO-LIKE KINASE AND MICROTUBULE POLYMERIZATION” (Massachusetts Institute of Technology, priority 2022, published 2023)", "key": {"[1]": {"conditions": "relative to 2-ME; cited from earlier work"}, "[2]": {"conditions": "cited from earlier work"}, "[3]": {"conditions": "oral administration; cited from earlier work"}, "[4]": {"system": "HCT116, NCI-H460, and taxane-resistant CXB1 colon carcinoma xenografts", "design": "dose or concentration left out as unconfirmed", "conditions": "cited from earlier work"}, "[5]": {"system": "Her2+ trastuzumab-resistant breast cancer", "conditions": "via CDK1-dependent phosphorylation and inactivation of Bcl-2/xL; cited from earlier work"}, "[6]": {"system": "panel of >50 other kinases", "conditions": "in vitro; cited from earlier work"}, "[7]": {"system": "C4-2 castrate resistant prostate cancer (CRPC) cells", "assay": "Relative viability after drug dose matrix (CellTiter-Glo, Bliss Independence) in C4-2 cells", "type": "cell-based", "conditions": "for concentrations at which the more than additive reduction occurs / reduction in cancer cell viability of maytansinoid with Plk1 inhibitor versus each alone: C4-2 cells, with onvansertib; for reduction in cancer cell viability of maytansinoid with Plk1 inhibitor versus each alone: five days, free agents, FIGS. 5A and 5B", "experimental": "All cell lines were cultured in a humidified incubator at 37° C. and with 5% CO2, were maintained sub-confluent and used for no more than 20 passages. Media was supplemented with 10% fetal bovine serum (FBS), contained 2 mM glutamine and lacked antibiotics, unless otherwise noted. A549, BT-20, CCD-1112sk, CCD-18co, CFPAC1, HCT 116, HeLa, HT-29, HT55, MCF7, MDA-MB-157, MDA-MB-231, MDA-MB-415, MDA-MB-436, MDA-MB-453, MDA-MB-468, SW48, T98G, U-2 OS, U-87 MG, CAOV3, COV362, and JIMT1 cells were grown in DMEM; 22RV1, AU565, C4-2, CAL33, COL0205,HCC38, HCT-15, KYSE150, LNCaP, LOVO, NCI-H1299, PC-3, ZR-75-1, HCC1419, HCC1569, HCC1954, ZR7530, OVCAR-4, OVCAR8 cells were grown in RPMI 1640; HT1197, HT1376, J82, UMUC3 cells were grown in MEM; OV90, TOV122D, TOV21G cells were grown in 1:1 MCDB105:Medial99 15% FBS; 59M, OAW28, OAW42 cells were grown in Advanced DMEM 0.023 IU/ml insulin; ES2, SKOV3 cells were grown in McCoy's 5A; JHOS2, JHOS4 cells were grown in 1:1 DMEM:HamF12; HUVEC cells were grown in EBM with EGM™-2 BULLETKIT™\nFor dose response experiments and experiments that examine synergy as a measure of change in relative viability, cells were grown in 384-well plates in triplicate. The following day the cells were subjected to a drug dose matrix that consisted of increasing concentrations of a Plk inhibitor, increasing concentrations of a microtubule polymerization inhibitor, and all pairwise combinations. Drugs were dissolved in DMSO and diluted in the appropriate cell growth media while maintaining a constant final concentration of DMSO. After five days, relative viability was assessed using […]-GLO™ (Promega) Luminescent Cell Viability Assay according to the manufacturer's recommendations. Luminescence was measured using an […]™ M200 Pro plate reader (Tecan Group Ltd.). […] The dose response plots (for example FIG. 1A) show sensitivity to increasing concentrations of a microtubule polymerization inhibitor in the absence or presence of a constant amount of Plk inhibitor. Bars represent the standard error of the mean. The concentration of Plk inhibitor chosen to presented was based on a ˜20-30% reduction of viability when that drug was used at that dose in isolation. The entire amount of greater-than-additive response observed in the dose matrix is the integrated volume between the observed and expected surfaces generated by the response matrix and is also known as Bliss Volume. Bliss Volume synergy metrics are presented in FIG. 3 as the fractional change in volume between the expected and observed response surfaces."}, "[8]": {"system": "growth factor activated endothelial cells", "conditions": "cited from earlier work"}, "[9]": {"system": "Her2+ breast cancer cell lines", "assay": "Viability dose matrix in panel of six Her2+ breast cancer cell lines", "type": "cell-based", "conditions": "DM1 with onvansertib, five days, majority of six cell lines, FIGS. 8A-8F", "experimental": "(§1) All cell lines were cultured in a humidified incubator at 37° C. and with 5% CO2, were maintained sub-confluent and used for no more than 20 passages. Media was supplemented with 10% fetal bovine serum (FBS), contained 2 mM glutamine and lacked antibiotics, unless otherwise noted. […]\n(§2) For dose response experiments and experiments that examine synergy as a measure of change in relative viability, cells were grown in 384-well plates in triplicate. […] After five days, relative viability was assessed using […]-GLO™ (Promega) Luminescent Cell Viability Assay according to the manufacturer's recommendations. Luminescence was measured using an […]™ M200 Pro plate reader (Tecan Group Ltd.). […]"}, "[10]": {"system": "ovarian cancer cell lines", "assay": "Viability dose matrix in panel of 14 ovarian cancer cell lines", "type": "cell-based", "conditions": "DM4 with onvansertib, five days, FIGS. 6A-6N", "experimental": "as §1, §2"}, "UMUC3": {"system": "UMUC3", "assay": "Viability dose matrix in UMUC3 bladder cancer cells", "type": "cell-based", "conditions": "MMAE with onvansertib, five days, FIG. 7D", "experimental": "as §1, §2"}, "[11]": {"system": "bladder cancer cell lines", "assay": "Viability dose matrix in panel of four bladder cancer cell lines", "type": "cell-based", "conditions": "MMAE with onvansertib, five days, FIGS. 7A-7D", "experimental": "as §1, §2"}, "T47D cells [12]": {"system": "T47D cells", "conditions": "read-out: GI50, cell proliferation; cited from earlier work"}, "T47D cells [13]": {"system": "T47D cells", "conditions": "read-out: EC50 for caspase activation; cited from earlier work"}, "[14]": {"system": "variety of tumors, including those that express the multidrug resistance (MDR) phenotype", "conditions": "read-out: IC50 against a variety of tumors; cited from earlier work"}}, "note": "Where a SMILES comes first, the peptide text is derived from it. [ ]: non-standard residue; d: D form. The star is where a group is joined. Dolaproine = CO[C@@H]([C@@H]1CCCN1)[C@@H](C)C(=O)O; Dil = CC[C@H](C)[C@H](NC)[C@@H](CC(=O)O)OC; X1 = C[C@@H](N*)[C@@H](O)c1ccccc1; NMeV = CN[C@H](C(=O)O)C(C)C", "data": [{"compound": "COc1cc2c(cc1O)CC[C@@H]1[C@@H]2CC[C@]2(C)C(=O)CC[C@@H]12", "note": "[2-methoxyestrone]", "values": [{"measurement": "loss in activity in vitro on oxidation of 2-ME to 2-methoxyestrone", "setting": "[1]", "value": "10-to 100 fold"}]}, {"compound": "COc1ccc(S(=O)(=O)Nc2cccnc2Nc2ccc(O)cc2)cc1", "note": "[ABT-751]", "values": [{"measurement": "maximum tolerated dose", "setting": "[2]; daily schedule, phase I", "value": 250, "unit": "mg/day"}, {"measurement": "overall mean Tmax", "setting": "[3]", "value": "about 2 h"}]}, {"compound": "CC[C@@H]1C(=O)N(C)c2cnc(Nc3ccc(C(=O)N[C@H]4CC[C@H](N5CCN(CC6CC6)CC5)CC4)cc3OC)nc2N1C(C)C", "note": "[BI6727]", "values": [{"measurement": "growth of human carcinoma xenografts", "setting": "[4]", "value": "significantly inhibits the growth"}, {"measurement": "effect on T-DM1 resistance", "setting": "[5]", "value": "overcomes T-DM1 resistance"}, {"measurement": "inhibitory activity against a panel of >50 other kinases", "setting": "[6]", "value": "no inhibitory activity"}, {"measurement": "recommended dose for further development", "setting": "[2]; advanced solid tumors, i.v. once every 3 weeks, based on overall tolerability", "value": 300, "unit": "mg"}, {"measurement": "MTD", "setting": "[2]; advanced solid tumors, i.v. once every 3 weeks", "value": 400, "unit": "mg"}, {"measurement": "MTD in combination with afatinib", "setting": "[2]; advanced solid tumors", "value": 300, "unit": "mg"}, {"measurement": "effect of the combination of TH588 with a Plk1 inhibitor", "setting": "[7]; each Plk1 inhibitor in combination with TH588, relative viability", "value": "more than additive"}]}, {"compound": "COc1cc(C(=O)c2c(C)oc3c(O)c(OC)ccc23)cc(OC)c1OC", "note": "[BNC-105]", "values": [{"measurement": "selectivity for growth factor activated endothelial cells compared to quiescent HUVECs", "setting": "[8]", "value": 81, "unit": "fold"}]}, {"compound": "COc1cc2cc(c1Cl)N(C)C(=O)C[C@H](OC(=O)[C@H](C)N(C)C(=O)CCS)C1(C)O[C@H]1[C@H](C)[C@@H]1C[C@@](O)(NC(=O)O1)[C@H](OC)/C=C/C=C(\\C)C2", "note": "(stereo partly shown) [DM1]", "values": [{"measurement": "response to combined Plk1 inhibitor and DM1", "setting": "[9]", "value": "greater than additive response"}, {"measurement": "concentrations at which the more than additive reduction occurs", "setting": "[7]", "value": "sub-nanomolar"}, {"measurement": "reduction in cancer cell viability of maytansinoid with Plk1 inhibitor versus each alone", "setting": "[7]", "value": "more than the additive reduction"}]}, {"compound": "COc1cc2cc(c1Cl)N(C)C(=O)C[C@H](OC(=O)[C@H](C)N(C)C(=O)CCC(C)(C)S)C1(C)O[C@H]1[C@H](C)[C@@H]1C[C@@](O)(NC(=O)O1)[C@H](OC)/C=C/C=C(\\C)C2", "note": "(stereo partly shown) [DM4]", "values": [{"measurement": "concentrations at which the more than additive reduction occurs", "setting": "[7]", "value": "sub-nanomolar"}, {"measurement": "reduction in cancer cell viability of maytansinoid with Plk1 inhibitor versus each alone", "setting": "[7]", "value": "more than the additive reduction"}, {"measurement": "cell lines with greater than additive responses to the drug combination", "setting": "[10]", "value": "Ten of fourteen"}]}, {"compound": "CC[C@H](C)[C@@H]([C@@H](CC(=O)N1CCC[C@H]1[C@H](OC)[C@@H](C)C(=O)N[C@H](C)[C@@H](O)c1ccccc1)OC)N(C)C(=O)[C@@H](NC(=O)[C@@H](NC)C(C)C)C(C)C", "note": "[MMAE, monomethyl auristatin E] (H-[NMeV]V[Dil][Dolaproine]-X1)", "values": [{"measurement": "response to the combination in UMUC3", "setting": "UMUC3", "value": "very notable response"}, {"measurement": "response to the combination in bladder cancer cell lines", "setting": "[11]", "value": "Varying amounts of greater than additive responses"}]}, {"compound": "COc1ccc(N(C)c2nc(Cl)nc3ccccc23)cc1", "note": "[MPI-0441138]", "values": [{"measurement": "GI50", "setting": "T47D cells [12]", "value": 2, "unit": "nM"}, {"measurement": "EC50", "setting": "T47D cells [13]", "value": 2, "unit": "nM"}]}, {"compound": "COc1ccc(NS(=O)(=O)c2c(F)c(F)c(F)c(F)c2F)cc1F", "note": "[T138067]", "values": [{"measurement": "IC50", "setting": "[14]", "value": "11 to 165", "unit": "nM"}]}]}
